# Results reported in patent publication US10106538B2, “Inhibitors of protein kinases” (PRINCETON DRUG DISCOVERY INC, priority 2015, dated 2018).
# pIC50: −log10 of the molar value.
# Columns and labels:
# AurA = target: T1, AurA (Homo sapiens, UniProt O14965); test: Off-chip Mobility Shift Assay (MSA) kinase inhibition; type: biochemical
# T1 construct: purchased Carna Biosciences
# T1 sequence (O14965 1-403): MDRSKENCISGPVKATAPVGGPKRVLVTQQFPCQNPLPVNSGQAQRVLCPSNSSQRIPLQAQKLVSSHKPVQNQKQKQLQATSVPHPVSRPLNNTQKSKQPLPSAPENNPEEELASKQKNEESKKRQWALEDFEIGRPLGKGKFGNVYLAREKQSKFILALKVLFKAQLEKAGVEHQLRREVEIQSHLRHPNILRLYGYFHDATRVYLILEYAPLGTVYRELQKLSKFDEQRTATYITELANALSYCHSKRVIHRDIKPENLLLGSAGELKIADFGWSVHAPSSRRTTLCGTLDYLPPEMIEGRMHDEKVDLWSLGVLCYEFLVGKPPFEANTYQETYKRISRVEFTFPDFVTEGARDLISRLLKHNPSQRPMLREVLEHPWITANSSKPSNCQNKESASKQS
# Description: (§1) Off-chip Mobility Shift Assay (MSA) by Cama Biosciences, Inc (Natick, Mass.) a used for measuring the kinase activity and inhibition. • 1) The 5 μL of x4 compound solution, 5 μL of x4 Substrate/ATP/Metal solution, and 10 μL of x2 kinase solution were prepared with assay buffer (20 mM HEPES, 0.01% Triton X100, 2 mM DTT, pH 7.5) and mixed and incubated in a well of polypropylene 384 well microplate for 1 or 5 hour(s)* at room temperature.
# BRAF = target: T2, BRAF (Homo sapiens, UniProt P15056); test: as above; type: biochemical
# T2 construct: purchased Carna Biosciences
# Description: as §1
# BTK = target: T3, BTK (Homo sapiens, UniProt Q06187); test: as above; type: biochemical; settings: for inhibition at 0.1 µM: inhibitor concentration 0.1 μM
# T3 construct: purchased Carna Biosciences
# Description: as §1
# EGFR = target: T4, EGFR (Homo sapiens, UniProt P00533); test: as above; type: biochemical
# T4 construct: purchased Carna Biosciences
# Description: as §1
# FGFR2 = target: T5, FGFR2 (Homo sapiens, UniProt P21802); test: as above; type: biochemical
# T5 construct: purchased Carna Biosciences
# Description: as §1
# FGFR3 = target: T6, FGFR3 (Homo sapiens, UniProt P22607); test: as above; type: biochemical
# T6 construct: purchased Carna Biosciences
# Description: as §1
# FGR = target: T7, FGR (Homo sapiens, UniProt P09769); test: as above; type: biochemical; settings: for inhibition at 0.1 µM: inhibitor concentration 0.1 μM
# T7 construct: purchased Carna Biosciences
# Description: as §1
# IGF1R = target: T8, IGF1R (Homo sapiens, UniProt P08069); test: as above; type: biochemical
# T8 construct: purchased Carna Biosciences
# Description: as §1
# KIT = target: T9, KIT (Homo sapiens, UniProt P10721); test: as above; type: biochemical; settings: for inhibition at 0.1 µM: inhibitor concentration 0.1 μM
# T9 construct: purchased Carna Biosciences
# Description: as §1
# KIT(D816V) = target: T10, KIT(D816V) (Homo sapiens, UniProt P10721, D816V); test: as above; type: biochemical
# T10 construct: purchased Carna Biosciences
# Description: as §1
# KIT(T670I) = target: T11, KIT(T670I) (Homo sapiens, UniProt P10721, T670I); test: as above; type: biochemical
# T11 construct: purchased Carna Biosciences
# Description: as §1
# LCK = target: T12, LCK (Homo sapiens, UniProt P06239); test: as above; type: biochemical; settings: for inhibition at 0.1 µM: inhibitor concentration 0.1 μM
# T12 construct: purchased Carna Biosciences
# Description: as §1
# LYNb = target: T13, LYNb (Homo sapiens, UniProt P07948); test: as above; type: biochemical; settings: for inhibition at 0.1 µM: inhibitor concentration 0.1 μM
# T13 construct: purchased Carna Biosciences
# Description: as §1
# MAP2K2 = target: T14, MAP2K2 (Homo sapiens, UniProt P36507); test: as above; type: biochemical
# T14 construct: purchased Carna Biosciences
# Description: as §1
# MET = target: T15, MET (Homo sapiens, UniProt P08581); test: as above; type: biochemical
# T15 construct: purchased Carna Biosciences
# Description: as §1
# MNK1 = target: T16, MNK1 (Homo sapiens, UniProt Q9BUB5); test: as above; type: biochemical
# T16 construct: purchased Carna Biosciences
# Description: as §1
# RAF1 = target: T17, RAF1 (Homo sapiens, UniProt P04049); test: as above; type: biochemical
# T17 construct: purchased Carna Biosciences
# Description: as §1
# SRM = target: T18, SRM (Homo sapiens, UniProt Q9H3Y6); test: as above; type: biochemical; settings: for inhibition at 0.1 µM: inhibitor concentration 0.1 μM
# T18 construct: purchased Carna Biosciences
# Description: as §1
# [1] = tested on: breast cancer cell line T-47D; test: Cell growth assay with breast cancer cell line T-47D; type: cell-based; settings: Homo sapiens, T47D, 72 h, T-47D cells, PrestoBlue Cell Viability reagent, read-out: IC50 inhibition of cell growth
# Description: […] of the complete medium was then gently dispersed over the surface of the cell layer for several times. The cell concentration was adjusted to 1×10^4 cells/mL with the complete medium. A 100 μL aliquot of the cell suspension was added to the well of a 96-well plate, and the plate was incubated overnight at 37° C. under 5% CO2 with saturated humidity. On the next day, the medium in each well was aspirated and replaced with a 100 μL aliquot of pre-warmed complete medium at 37° C. in the presence or absence of the test compounds at various concentrations from 0-100 μM. The test compounds were dissolved in DMSO, and the final DMSO concentration in the cell culture was no more than 1%. The plate was incubated for 72 hours at 37° C. under 5% CO2 with saturated humidity. At end of the cell culture a 10 μL aliquot of PrestoBlue® Cell Viability reagent (ThermoFisher Scientific) was added into the well and the plate was incubated at 37° C. for 30 min. The absorption at 570 and 600 nm were measured with a SpectraMax Microplate reader (Molecular Devices), The absorbance at […] was normalized to that at 600 nm.
# ABL(E255K) = target: T19, ABL(E255K) (Homo sapiens, UniProt P00519, E255K); test: Off-chip Mobility Shift Assay (MSA) kinase inhibition; type: biochemical; settings: inhibitor concentration 0.1 μM
# T19 construct: purchased Carna Biosciences
# Description: as §1
# AKT3 = target: T20, AKT3 (Homo sapiens, UniProt Q9Y243); test: as above; type: biochemical; settings: inhibitor concentration 0.1 μM
# T20 construct: purchased Carna Biosciences
# Description: as §1
# FAK = target: T21, FAK (Homo sapiens, UniProt Q05397); test: as above; type: biochemical; settings: inhibitor concentration 0.1 μM
# T21 construct: purchased Carna Biosciences, Inc
# Description: as §1
# JNK2 = target: T22, JNK2 (Homo sapiens, UniProt P45984); test: as above; type: biochemical; settings: inhibitor concentration 0.1 μM
# T22 construct: purchased Carna Biosciences
# Description: as §1
# JNK3 = target: T23, JNK3 (Homo sapiens, UniProt P53779); test: as above; type: biochemical; settings: inhibitor concentration 0.1 μM
# T23 construct: purchased Carna Biosciences, Inc
# Description: as §1
# MLK1 = target: T24, MLK1 (Homo sapiens, UniProt P80192); test: as above; type: biochemical; settings: inhibitor concentration 0.1 μM
# T24 construct: purchased Carna Biosciences
# Description: as §1
# PKACα = target: T25, PKACα (Homo sapiens, UniProt P17612); test: as above; type: biochemical; settings: inhibitor concentration 0.1 μM
# T25 construct: purchased Carna Biosciences, Inc
# Description: as §1
# RON = target: T26, RON (Homo sapiens, UniProt Q04912); test: as above; type: biochemical; settings: inhibitor concentration 0.1 μM
# T26 construct: purchased Carna Biosciences
# Description: as §1
# [2] = inhibitor concentration 0.01 μM
# T13 sequence (P07948 1-491 isoform P07948-2): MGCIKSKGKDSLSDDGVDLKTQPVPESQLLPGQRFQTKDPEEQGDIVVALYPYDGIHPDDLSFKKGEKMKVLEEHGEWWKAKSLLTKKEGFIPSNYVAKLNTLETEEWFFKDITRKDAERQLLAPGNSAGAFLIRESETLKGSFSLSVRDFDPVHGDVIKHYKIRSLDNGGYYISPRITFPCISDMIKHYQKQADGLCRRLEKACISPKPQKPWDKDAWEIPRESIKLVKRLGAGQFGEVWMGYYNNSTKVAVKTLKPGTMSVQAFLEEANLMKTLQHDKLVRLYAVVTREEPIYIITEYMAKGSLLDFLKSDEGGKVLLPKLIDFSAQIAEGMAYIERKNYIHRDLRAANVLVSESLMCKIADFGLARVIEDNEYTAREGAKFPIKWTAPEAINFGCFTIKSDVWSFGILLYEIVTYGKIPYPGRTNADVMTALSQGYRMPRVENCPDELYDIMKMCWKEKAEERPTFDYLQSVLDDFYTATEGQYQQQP
# T3 sequence (Q06187 whole entry): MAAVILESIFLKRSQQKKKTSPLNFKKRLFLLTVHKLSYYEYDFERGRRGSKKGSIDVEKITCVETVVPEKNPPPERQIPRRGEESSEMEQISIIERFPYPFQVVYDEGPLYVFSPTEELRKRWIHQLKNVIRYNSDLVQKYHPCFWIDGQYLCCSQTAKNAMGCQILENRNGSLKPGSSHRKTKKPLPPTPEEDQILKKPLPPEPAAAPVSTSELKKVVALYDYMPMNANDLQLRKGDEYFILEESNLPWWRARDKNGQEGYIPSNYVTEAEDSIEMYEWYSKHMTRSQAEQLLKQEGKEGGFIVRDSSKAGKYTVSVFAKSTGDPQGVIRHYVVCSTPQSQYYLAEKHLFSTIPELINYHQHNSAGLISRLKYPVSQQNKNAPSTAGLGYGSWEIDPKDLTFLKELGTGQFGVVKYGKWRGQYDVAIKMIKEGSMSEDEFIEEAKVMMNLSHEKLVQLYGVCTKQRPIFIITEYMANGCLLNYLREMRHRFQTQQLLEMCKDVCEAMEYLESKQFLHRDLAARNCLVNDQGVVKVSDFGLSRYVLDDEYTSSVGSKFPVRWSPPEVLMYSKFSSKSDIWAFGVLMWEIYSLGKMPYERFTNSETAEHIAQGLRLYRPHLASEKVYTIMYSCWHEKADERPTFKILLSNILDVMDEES
# T12 sequence (P06239 whole entry): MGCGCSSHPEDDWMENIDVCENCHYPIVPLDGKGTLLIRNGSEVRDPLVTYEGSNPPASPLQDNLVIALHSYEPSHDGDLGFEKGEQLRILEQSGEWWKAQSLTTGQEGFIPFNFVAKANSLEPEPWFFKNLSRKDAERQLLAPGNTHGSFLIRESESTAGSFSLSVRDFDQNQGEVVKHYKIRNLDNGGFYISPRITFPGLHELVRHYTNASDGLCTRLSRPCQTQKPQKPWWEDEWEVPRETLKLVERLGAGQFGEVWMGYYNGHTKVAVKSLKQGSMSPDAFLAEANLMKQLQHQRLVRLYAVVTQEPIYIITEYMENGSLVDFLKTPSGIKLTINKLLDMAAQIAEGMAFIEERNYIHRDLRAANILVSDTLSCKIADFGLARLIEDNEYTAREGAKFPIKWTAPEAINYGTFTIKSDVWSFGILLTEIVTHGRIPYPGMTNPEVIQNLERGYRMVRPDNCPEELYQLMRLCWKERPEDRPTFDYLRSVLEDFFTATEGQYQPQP
# T7 sequence (P09769 whole entry): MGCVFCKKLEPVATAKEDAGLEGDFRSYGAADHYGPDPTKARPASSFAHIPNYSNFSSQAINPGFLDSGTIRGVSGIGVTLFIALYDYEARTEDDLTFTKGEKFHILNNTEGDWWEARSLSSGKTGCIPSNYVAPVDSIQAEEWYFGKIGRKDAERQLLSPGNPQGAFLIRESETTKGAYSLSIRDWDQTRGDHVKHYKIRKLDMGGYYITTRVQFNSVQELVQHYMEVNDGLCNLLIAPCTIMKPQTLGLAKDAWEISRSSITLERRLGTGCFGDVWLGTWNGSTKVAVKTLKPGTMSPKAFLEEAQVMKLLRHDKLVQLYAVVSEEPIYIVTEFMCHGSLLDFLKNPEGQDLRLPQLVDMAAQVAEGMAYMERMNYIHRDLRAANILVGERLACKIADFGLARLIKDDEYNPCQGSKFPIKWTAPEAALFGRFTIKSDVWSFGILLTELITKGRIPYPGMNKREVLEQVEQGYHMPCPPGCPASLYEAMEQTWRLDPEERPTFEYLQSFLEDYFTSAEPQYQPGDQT
# T9 sequence (P10721 26-976): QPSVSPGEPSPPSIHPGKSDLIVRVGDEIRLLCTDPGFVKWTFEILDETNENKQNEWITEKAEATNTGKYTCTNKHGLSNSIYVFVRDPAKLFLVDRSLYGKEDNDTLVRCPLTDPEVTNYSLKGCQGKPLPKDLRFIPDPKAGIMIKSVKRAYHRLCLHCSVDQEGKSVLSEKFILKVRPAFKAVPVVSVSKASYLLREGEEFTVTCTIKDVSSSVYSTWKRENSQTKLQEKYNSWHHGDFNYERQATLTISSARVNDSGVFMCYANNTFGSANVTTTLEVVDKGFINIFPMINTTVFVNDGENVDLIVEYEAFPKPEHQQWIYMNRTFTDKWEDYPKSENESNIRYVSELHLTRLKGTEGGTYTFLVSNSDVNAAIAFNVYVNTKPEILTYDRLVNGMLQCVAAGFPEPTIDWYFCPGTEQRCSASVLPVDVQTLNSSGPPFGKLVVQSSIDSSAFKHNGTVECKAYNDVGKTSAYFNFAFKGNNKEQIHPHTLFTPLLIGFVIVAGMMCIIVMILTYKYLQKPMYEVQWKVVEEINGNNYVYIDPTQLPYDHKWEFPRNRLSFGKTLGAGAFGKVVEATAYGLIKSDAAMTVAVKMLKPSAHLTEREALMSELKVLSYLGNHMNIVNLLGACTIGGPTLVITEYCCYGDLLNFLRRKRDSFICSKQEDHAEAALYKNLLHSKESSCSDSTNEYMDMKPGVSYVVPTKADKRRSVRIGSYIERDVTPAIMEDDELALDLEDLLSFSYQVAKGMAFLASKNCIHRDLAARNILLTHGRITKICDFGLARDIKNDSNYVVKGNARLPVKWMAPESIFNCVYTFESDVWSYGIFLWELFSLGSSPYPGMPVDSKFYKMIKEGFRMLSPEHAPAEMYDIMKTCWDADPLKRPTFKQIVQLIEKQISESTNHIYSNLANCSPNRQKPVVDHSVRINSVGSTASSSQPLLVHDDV
# T18 sequence (Q9H3Y6 whole entry): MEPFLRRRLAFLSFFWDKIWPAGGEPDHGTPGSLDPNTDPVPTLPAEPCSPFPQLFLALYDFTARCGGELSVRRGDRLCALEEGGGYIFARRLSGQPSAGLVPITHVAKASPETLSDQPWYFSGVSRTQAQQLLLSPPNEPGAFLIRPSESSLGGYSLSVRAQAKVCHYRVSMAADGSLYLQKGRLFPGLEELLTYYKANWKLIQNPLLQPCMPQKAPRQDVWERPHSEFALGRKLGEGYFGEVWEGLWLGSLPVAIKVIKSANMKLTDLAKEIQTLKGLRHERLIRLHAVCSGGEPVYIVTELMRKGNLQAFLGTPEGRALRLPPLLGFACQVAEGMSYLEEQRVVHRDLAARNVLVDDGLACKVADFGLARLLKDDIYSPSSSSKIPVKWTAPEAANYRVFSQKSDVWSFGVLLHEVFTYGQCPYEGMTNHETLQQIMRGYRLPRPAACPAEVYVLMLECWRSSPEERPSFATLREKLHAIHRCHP
# T17 sequence (P04049 whole entry): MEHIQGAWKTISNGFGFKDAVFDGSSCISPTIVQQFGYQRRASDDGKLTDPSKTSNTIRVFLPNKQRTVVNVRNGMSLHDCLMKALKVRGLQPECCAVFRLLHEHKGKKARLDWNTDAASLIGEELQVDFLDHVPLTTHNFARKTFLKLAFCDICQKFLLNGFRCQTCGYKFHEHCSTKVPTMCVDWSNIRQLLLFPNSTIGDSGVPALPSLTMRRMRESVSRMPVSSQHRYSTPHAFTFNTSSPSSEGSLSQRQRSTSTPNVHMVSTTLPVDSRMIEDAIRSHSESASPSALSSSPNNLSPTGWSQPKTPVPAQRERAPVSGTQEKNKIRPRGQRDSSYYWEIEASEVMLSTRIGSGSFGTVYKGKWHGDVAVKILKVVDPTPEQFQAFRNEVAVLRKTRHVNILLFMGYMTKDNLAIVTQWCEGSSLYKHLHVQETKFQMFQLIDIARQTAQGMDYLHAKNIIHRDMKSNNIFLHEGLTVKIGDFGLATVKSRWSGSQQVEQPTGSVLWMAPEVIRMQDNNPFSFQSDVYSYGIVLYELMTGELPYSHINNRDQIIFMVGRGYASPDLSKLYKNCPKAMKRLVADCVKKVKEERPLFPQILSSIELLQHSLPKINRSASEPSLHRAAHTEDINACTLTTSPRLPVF
# T2 sequence (P15056 whole entry): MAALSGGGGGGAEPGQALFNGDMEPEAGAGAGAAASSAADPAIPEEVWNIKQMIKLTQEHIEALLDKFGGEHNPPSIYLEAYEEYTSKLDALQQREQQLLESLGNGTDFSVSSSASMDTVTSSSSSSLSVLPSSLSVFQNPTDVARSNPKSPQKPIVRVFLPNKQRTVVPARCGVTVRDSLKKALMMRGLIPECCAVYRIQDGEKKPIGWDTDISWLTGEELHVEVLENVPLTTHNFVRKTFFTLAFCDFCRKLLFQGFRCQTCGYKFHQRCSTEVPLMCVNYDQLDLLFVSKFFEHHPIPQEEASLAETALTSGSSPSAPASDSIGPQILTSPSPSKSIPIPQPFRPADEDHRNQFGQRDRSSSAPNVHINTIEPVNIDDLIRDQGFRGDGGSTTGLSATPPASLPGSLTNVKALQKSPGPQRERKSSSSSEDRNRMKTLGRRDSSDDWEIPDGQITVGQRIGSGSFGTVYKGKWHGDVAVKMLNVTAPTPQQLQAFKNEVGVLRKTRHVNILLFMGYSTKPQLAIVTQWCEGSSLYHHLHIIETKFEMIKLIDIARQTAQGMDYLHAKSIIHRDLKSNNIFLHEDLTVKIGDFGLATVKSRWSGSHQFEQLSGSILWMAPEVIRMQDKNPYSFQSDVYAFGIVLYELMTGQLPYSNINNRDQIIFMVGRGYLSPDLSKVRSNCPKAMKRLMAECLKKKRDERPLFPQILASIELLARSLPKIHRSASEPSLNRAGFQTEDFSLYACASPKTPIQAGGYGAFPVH
structure (smiles),measurement,setting,value
"O=C(c1c(F)ccc(NS(=O)(=O)CCCO)c1F)c1c[nH]c2ncc(-c3ccc(Cl)cc3)cc12 [200-17, N-[3-[5-(4-chlorophenyl)-1H-pyrrolo[2,3-b]pyridine-3-carbonyl]-2,4-difluorophenyl]-3-hydroxypropane-1-sulfonamide]",inhibition at 1 µM,AurA; inhibitor concentration 1 μM,> 50%
same,inhibition at 1 µM,BRAF; inhibitor concentration 1 μM,< 50%
same,inhibition at 0.01 µM,BTK; [2],< 30%
same,inhibition at 0.1 µM,BTK,< 50%
same,inhibition at 1 µM,BTK; inhibitor concentration 1 μM,< 50%
same,inhibition at 1 µM,EGFR; inhibitor concentration 1 μM,> 50%
same,inhibition at 1 µM,FGFR2; inhibitor concentration 1 μM,> 50%
same,inhibition at 1 µM,FGFR3; inhibitor concentration 1 μM,> 50%
same,inhibition at 0.01 µM,FGR; [2],> 30%
same,inhibition at 0.1 µM,FGR,> 50%
same,inhibition at 1 µM,FGR; inhibitor concentration 1 μM,> 50%
same,inhibition at 1 µM,IGF1R; inhibitor concentration 1 μM,< 50%
same,inhibition at 0.01 µM,KIT; [2],> 30%
same,inhibition at 0.1 µM,KIT,> 50%
same,inhibition at 1 µM,KIT; inhibitor concentration 1 μM,> 50%
same,inhibition at 1 µM,KIT(D816V); inhibitor concentration 1 μM,> 50%
same,inhibition at 1 µM,KIT(T670I); inhibitor concentration 1 μM,< 50%
same,inhibition at 0.01 µM,LCK; [2],> 30%
same,inhibition at 0.1 µM,LCK,> 50%
same,inhibition at 1 µM,LCK; inhibitor concentration 1 μM,> 50%
same,inhibition at 0.01 µM,LYNb; [2],< 30%
same,inhibition at 0.1 µM,LYNb,> 50%
same,inhibition at 1 µM,LYNb; inhibitor concentration 1 μM,> 50%
same,inhibition at 1 µM,MAP2K2; inhibitor concentration 1 μM,< 50%
same,inhibition at 1 µM,MET; inhibitor concentration 1 μM,> 50%
same,inhibition at 1 µM,MNK1; inhibitor concentration 1 μM,> 50%
same,inhibition at 1 µM,RAF1; inhibitor concentration 1 μM,> 50%
same,inhibition at 0.01 µM,SRM; [2],> 30%
same,inhibition at 0.1 µM,SRM,> 50%
same,inhibition at 1 µM,SRM; inhibitor concentration 1 μM,> 50%
same,pIC50,[1],> 4.70
"O=C(c1c(F)ccc(NS(=O)(=O)CC(O)CO)c1F)c1c[nH]c2ncc(-c3ccc(Cl)cc3)cc12 (stereo not drawn) [200-73, N-[3-[5-(4-chlorophenyl)-lH-pyrrolo [2,3-b]pyridine-3-carbonyl]-2,4-difluorophenyl]-2,3-dihydroxypropane-l-sulfonamide]",inhibition at 0.1 µM,ABL(E255K),< 30%
same,inhibition at 0.1 µM,AKT3,< 30%
same,inhibition at 0.1 µM,AurA; inhibitor concentration 0.1 μM,< 30%
same,inhibition at 0.1 µM,BRAF; inhibitor concentration 0.1 μM,< 30%
same,inhibition at 0.1 µM,BTK,< 30%
same,inhibition at 0.1 µM,EGFR; inhibitor concentration 0.1 μM,< 30%
same,inhibition at 0.1 µM,FAK,< 30%
same,inhibition at 0.1 µM,FGFR2; inhibitor concentration 0.1 μM,< 30%
same,inhibition at 0.1 µM,FGFR3; inhibitor concentration 0.1 μM,< 30%
same,inhibition at 0.1 µM,FGR,< 30%
same,inhibition at 0.1 µM,IGF1R; inhibitor concentration 0.1 μM,< 30%
same,inhibition at 0.1 µM,JNK2,< 30%
same,inhibition at 0.1 µM,JNK3,< 30%
same,inhibition at 0.1 µM,KIT,< 30%
same,inhibition at 0.1 µM,KIT(D816V); inhibitor concentration 0.1 μM,< 30%
same,inhibition at 0.1 µM,KIT(T670I); inhibitor concentration 0.1 μM,< 30%
same,inhibition at 0.1 µM,LCK,< 30%
same,inhibition at 0.1 µM,LYNb,< 30%
same,inhibition at 0.1 µM,MAP2K2; inhibitor concentration 0.1 μM,< 30%
same,inhibition at 0.1 µM,MET; inhibitor concentration 0.1 μM,< 30%
same,inhibition at 0.1 µM,MLK1,< 30%
same,inhibition at 0.1 µM,MNK1; inhibitor concentration 0.1 μM,< 30%
same,inhibition at 0.1 µM,PKACα,< 30%
same,inhibition at 0.1 µM,RAF1; inhibitor concentration 0.1 μM,> 30%
same,inhibition at 0.1 µM,RON,< 30%
same,inhibition at 0.1 µM,SRM,> 30%
same,pIC50,[1],> 4.70
